# Reference: the supplement of paper PMC10307832
# How the values were obtained:
# Assay in all cases: relative viability (nuclei count vs DMSO), 5 days (fraction); higher = more cells survive
# HCC-15 = test system: HCC-15
# In short: (§1)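 Lung cancer cell lines were seeded in 1536-well plates and dosed by pin tool the next day, with either a single drug or a fixed anchor-drug dose combined with five library-drug doses (not always all listed) spaced in √10 steps. Five days later, one step fixed the cells and stained their nuclei (final 0.05% Triton X-100, 1% formaldehyde, 1 ug/ml Hoechst), and nuclei were counted on 4× images. Relative viability is the nuclei count in treated wells divided by the count in vehicle wells, and each value is the median of duplicate plates.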
# NCI-H1993 = test system: NCI-H1993
# In short: as §1
# NCI-H358 = test system: NCI-H358
# In short: as §1
# ChaGo-K-1 = test system: ChaGo-K-1
# In short: as §1
# HARA = test system: HARA
# In short: as §1
# NCI-H1793 = test system: NCI-H1793
# In short: as §1
# COR-L23 = test system: COR-L23
# In short: as §1
# NCI-H2228 = test system: NCI-H2228
# In short: as §1
# HCC-78 = test system: HCC-78
# In short: as §1
# NCI-H2405 = test system: NCI-H2405
# In short: as §1
# SK-LU-1 = test system: SK-LU-1
# In short: as §1
# NCI-H2126 = test system: NCI-H2126
# In short: as §1
# NCI-H1395 = test system: NCI-H1395
# In short: as §1
# LC-2-ad = test system: LC-2-ad
# In short: as §1
# NCI-H1944 = test system: NCI-H1944
# In short: as §1
# HCC-366 = test system: HCC-366
# In short: as §1
# HOP-62 = test system: HOP-62
# In short: as §1
# EMC-BAC-2 = test system: EMC-BAC-2
# In short: as §1
# NCI-H23 = test system: NCI-H23
# In short: as §1
# NCI-H838 = test system: NCI-H838
# In short: as §1
# NCI-H2023 = test system: NCI-H2023
# In short: as §1
smiles,measurement,setting,value
COc1nc(C)cnc1NS(=O)(=O)c1cccnc1-c1ccc(-c2nnco2)cc1 [Zibotentan] + CC(=O)Nc1cccc(-n2c(=O)n(C3CC3)c(=O)c3c(Nc4ccc(I)cc4F)n(C)c(=O)c(C)c32)c1 [Trametinib] (partner 0.02 µM),relative viability,HCC-15; first compound 0.08 µM,0.397
same,relative viability,HCC-15; first compound 0.253 µM,0.412
same,relative viability,HCC-15; first compound 0.8 µM,0.414
same,relative viability,HCC-15; first compound 2.53 µM,0.319
same,relative viability,NCI-H1993; first compound 0.08 µM,0.591
same,relative viability,NCI-H1993; first compound 0.253 µM,0.51
same,relative viability,NCI-H1993; first compound 0.8 µM,0.459
same,relative viability,NCI-H1993; first compound 2.53 µM,0.545
same,relative viability,NCI-H358; first compound 0.08 µM,0.15
same,relative viability,NCI-H358; first compound 0.253 µM,0.109
same,relative viability,NCI-H358; first compound 2.53 µM,0.145
same,relative viability,ChaGo-K-1; first compound 0.08 µM,0.886
same,relative viability,ChaGo-K-1; first compound 0.253 µM,0.899
same,relative viability,ChaGo-K-1; first compound 0.8 µM,0.888
same,relative viability,ChaGo-K-1; first compound 2.53 µM,0.886
same,relative viability,HARA; first compound 0.08 µM,0.996
same,relative viability,HARA; first compound 0.8 µM,0.414
same,relative viability,HARA; first compound 2.53 µM,0.764
same,relative viability,NCI-H1793; first compound 0.08 µM,0.42
same,relative viability,NCI-H1793; first compound 0.253 µM,0.477
same,relative viability,NCI-H1793; first compound 0.8 µM,0.424
same,relative viability,NCI-H1793; first compound 2.53 µM,0.47
same,relative viability,COR-L23; first compound 0.08 µM,0.573
same,relative viability,COR-L23; first compound 0.253 µM,0.531
same,relative viability,COR-L23; first compound 0.8 µM,0.831
same,relative viability,COR-L23; first compound 2.53 µM,0.555
same,relative viability,NCI-H2228; first compound 0.08 µM,0.398
same,relative viability,NCI-H2228; first compound 0.253 µM,0.62
same,relative viability,NCI-H2228; first compound 0.8 µM,0.572
same,relative viability,NCI-H2228; first compound 2.53 µM,0.49
same,relative viability,HCC-78; first compound 0.08 µM,0.825
same,relative viability,HCC-78; first compound 0.253 µM,0.569
same,relative viability,HCC-78; first compound 0.8 µM,0.665
same,relative viability,HCC-78; first compound 2.53 µM,0.652
same,relative viability,NCI-H2405; first compound 0.08 µM,0.67
same,relative viability,NCI-H2405; first compound 0.253 µM,0.599
same,relative viability,NCI-H2405; first compound 0.8 µM,0.648
same,relative viability,NCI-H2405; first compound 2.53 µM,0.657
same,relative viability,SK-LU-1; first compound 0.08 µM,0.503
same,relative viability,SK-LU-1; first compound 0.253 µM,0.472
same,relative viability,SK-LU-1; first compound 0.8 µM,0.451
same,relative viability,SK-LU-1; first compound 2.53 µM,0.458
same,relative viability,NCI-H2126; first compound 0.08 µM,0.558
same,relative viability,NCI-H2126; first compound 0.253 µM,0.525
same,relative viability,NCI-H2126; first compound 0.8 µM,0.557
same,relative viability,NCI-H2126; first compound 2.53 µM,0.563
same,relative viability,NCI-H1395; first compound 0.08 µM,1.05
same,relative viability,NCI-H1395; first compound 0.253 µM,0.947
same,relative viability,NCI-H1395; first compound 0.8 µM,1.07
same,relative viability,NCI-H1395; first compound 2.53 µM,1.07
same,relative viability,LC-2-ad; first compound 0.08 µM,0.928
same,relative viability,LC-2-ad; first compound 0.253 µM,0.858
same,relative viability,LC-2-ad; first compound 0.8 µM,0.913
same,relative viability,LC-2-ad; first compound 2.53 µM,0.935
same,relative viability,NCI-H1944; first compound 0.08 µM,0.461
same,relative viability,NCI-H1944; first compound 0.253 µM,0.383
same,relative viability,NCI-H1944; first compound 0.8 µM,0.399
same,relative viability,NCI-H1944; first compound 2.53 µM,0.437
same,relative viability,HCC-366; first compound 0.08 µM,0.378
same,relative viability,HCC-366; first compound 0.253 µM,0.318
same,relative viability,HCC-366; first compound 0.8 µM,0.361
same,relative viability,HCC-366; first compound 2.53 µM,0.383
same,relative viability,HOP-62; first compound 0.08 µM,0.429
same,relative viability,HOP-62; first compound 0.253 µM,0.367
same,relative viability,HOP-62; first compound 0.8 µM,0.421
same,relative viability,HOP-62; first compound 2.53 µM,0.39
same,relative viability,EMC-BAC-2; first compound 0.08 µM,0.952
same,relative viability,EMC-BAC-2; first compound 0.8 µM,0.994
same,relative viability,EMC-BAC-2; first compound 2.53 µM,0.914
same,relative viability,NCI-H23; first compound 0.08 µM,0.403
same,relative viability,NCI-H23; first compound 0.253 µM,0.305
same,relative viability,NCI-H23; first compound 0.8 µM,0.349
same,relative viability,NCI-H23; first compound 2.53 µM,0.48
same,relative viability,NCI-H838; first compound 0.08 µM,0.525
same,relative viability,NCI-H838; first compound 0.253 µM,0.454
same,relative viability,NCI-H838; first compound 0.8 µM,0.487
same,relative viability,NCI-H838; first compound 2.53 µM,0.508
same,relative viability,NCI-H2023; first compound 0.08 µM,0.631
same,relative viability,NCI-H2023; first compound 0.8 µM,0.614
same,relative viability,NCI-H2023; first compound 2.53 µM,0.558
